Measurements from PubChem BioAssay (NCI).
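Step 1: Grow cells in 96-well plates. Step 2: Expose to compound for 48 hours at 5 concentrations. Step 3: Interpolate endpoints linearly; if unreached, use highest concentration. The concentration for 50% growth inhibition is given as GI50. The concentration for full growth arrest is given as TGI.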

Columns and labels:
Assay in all cases: growth of human tumour cells (NCI), 48 h
OVCAR-8 ovarian = tested on: OVCAR-8 ovarian
ACHN renal = tested on: ACHN renal
KM12 colon = tested on: KM12 colon
SK-MEL-28 melanoma = tested on: SK-MEL-28 melanoma
SW-620 colon = tested on: SW-620 colon
EKVX NSCLC = tested on: EKVX NSCLC
M14 melanoma = tested on: M14 melanoma
SK-MEL-2 melanoma = tested on: SK-MEL-2 melanoma
NCI-H23 lung = tested on: NCI-H23 lung
OVCAR-5 ovarian = tested on: OVCAR-5 ovarian
SF-295 CNS = tested on: SF-295 CNS
HS 578T breast = tested on: HS 578T breast
MCF7 breast = tested on: MCF7 breast
SN12C renal = tested on: SN12C renal
UACC-62 melanoma = tested on: UACC-62 melanoma
CAKI-1 renal = tested on: CAKI-1 renal
SF-268 CNS = tested on: SF-268 CNS
LOX IMVI melanoma = tested on: LOX IMVI melanoma
A549 NSCLC = tested on: A549 NSCLC
NCI-H226 lung = tested on: NCI-H226 lung
CCRF-CEM leukemia = tested on: CCRF-CEM leukemia
HOP-92 NSCLC = tested on: HOP-92 NSCLC
UO-31 renal = tested on: UO-31 renal
RXF 393 renal = tested on: RXF 393 renal
SNB-75 CNS = tested on: SNB-75 CNS
OVCAR-3 ovarian = tested on: OVCAR-3 ovarian
NCI/ADR-RES ovarian = tested on: NCI/ADR-RES ovarian
SR leukemia = tested on: SR leukemia
SNB-19 CNS = tested on: SNB-19 CNS
HT29 colon = tested on: HT29 colon

## O=C(Nc1ccc(I)cc1F)c1cc(I)ccc1O
OVCAR-8 ovarian
  TGI: > 100000 nM
ACHN renal
  GI50: 1690 nM
  TGI: > 100000 nM
KM12 colon
  GI50: 1010 nM
  TGI: 3850 nM
SK-MEL-28 melanoma
  GI50: 435 nM
  TGI: 2840 nM
SW-620 colon
  GI50: 866 nM
  TGI: > 36000 nM
EKVX NSCLC
  GI50: 737 nM
  TGI: 7170 nM
M14 melanoma
  GI50: 773 nM
  TGI: 3750 nM
SK-MEL-2 melanoma
  GI50: 319 nM
  TGI: 1590 nM
NCI-H23 lung
  GI50: 531 nM
  TGI: 2250 nM
OVCAR-5 ovarian
  GI50: 3050 nM
  TGI: > 100000 nM
SF-295 CNS
  GI50: 800 nM
  TGI: 2140 nM
HS 578T breast
  GI50: 617 nM
  TGI: 3950 nM
MCF7 breast
  GI50: 1550 nM
  TGI: 9280 nM
SN12C renal
  GI50: 511 nM
UACC-62 melanoma
  GI50: 312 nM
  TGI: 1220 nM
CAKI-1 renal
  GI50: 492 nM
  TGI: 4110 nM
SF-268 CNS
  GI50: 704 nM
  TGI: > 100000 nM
LOX IMVI melanoma
  GI50: 380 nM
  TGI: 1670 nM
A549 NSCLC
  GI50: 1150 nM
  TGI: > 100000 nM
NCI-H226 lung
  GI50: 739 nM
  TGI: 6110 nM
CCRF-CEM leukemia
  GI50: 943 nM
  TGI: > 37600 nM
HOP-92 NSCLC
  GI50: 179 nM
  TGI: 777 nM
UO-31 renal
  GI50: 535 nM
  TGI: 2220 nM
RXF 393 renal
  GI50: 779 nM
  TGI: 3240 nM
SNB-75 CNS
  GI50: 752 nM
  TGI: 6750 nM
OVCAR-3 ovarian
  GI50: 714 nM
  TGI: > 100000 nM
NCI/ADR-RES ovarian
  GI50: 791 nM
  TGI: 3850 nM
SR leukemia
  GI50: 1380 nM
  TGI: > 100000 nM
SNB-19 CNS
  GI50: 664 nM
  TGI: > 100000 nM
HT29 colon
  GI50: 3710 nM
  TGI: > 100000 nM
